Assay results as given in patent publication US20070142462A1, “Method of Treating Cancer” (The University of Utah, priority 2000, published 2007).

Legend:
Format in all cases: cell-based, human
[1] = tested on: breast carcinoma MDA-MB-453 cells; test: MTT proliferation assay, MDA-MB-453 breast carcinoma; conditions: Catalase 3000 U/ml; 10% FBS; 72 hours; mean±SE vs control
Experimental: (§1) Measurement of Proliferation in Cell Cultures. […] This assay empirically distinguishes between dead and living cells.
(§2) Cell Culture Treatments. The effect of antioxidant treatments on proliferation of malignant cell lines was studied in cultures stimulated with 10% FBS. Cell numbers were quantitated by the MTT assay 24-72 hours later. In some experiments, antioxidants were added immediately after cells were plated. In other experiments, cells were plated and allowed to grow for 24 hours before fresh media with antioxidants was added, and cell numbers were studied by the MTT assay 48 hours later.
(§3) Cells stimulated with 10% FBS were plated at a density of 50,000 cells per well. DMSO and antioxidants were added to cell wells at the indicated concentrations. […] Each value represents a mean of at least 4 experiments.

[2] = tested on: Adeno-squamous lung carcinoma NCI-H596 cells; test: MTT proliferation assay, NCI-H596 lung carcinoma; conditions: Catalase 3000 U/ml; 10% FBS; 48 hours; mean±SE vs control
Experimental: as §1, §2, §3

M1619 cells = test: Apoptosis by TdT fluorescein end-labeling (FragEL); conditions: 3000 U/ml catalase for 24 hours; vs DNase-treated positive control
Experimental: Measurement of Cytotoxicity and Apoptosis. To assess for cytotoxicity, near confluent cells cultured in 24 well plates were exposed to antioxidants or withdrawn from serum for 24 hours. Medium was removed, and replaced with Dulbecco=s phosphate buffered saline (DPBS) containing 0.1% trypan blue. […] To assess for apoptosis, cells grown on glass slides were treated with antioxidants for 24 hours. Apoptosis was studied by terminal deoxynucleotidyl transferase (TdT) dependent 3′BOH fluorescein end-labeling of DNA fragments, using a Fluorescein-FragEL™ DNA fragmentation detection kit (Oncogene Research Products, Cambridge, Mass.). DNase-treated fixed cells were used as a positive control.
Apoptosis was studied by terminal deoxynucleotidyl transferase (TdT) dependent 3′BOH fluorescein end-labeling of DNA fragments, using a Fluorescein-FragE™ DNA fragmentation detection kit (Oncogene Research Products).

[3] = tested on: LNCaP.FGC prostate adenocarcinoma cells; test: MTT proliferation assay, LNCaP.FGC prostate adenocarcinoma; conditions: Catalase 3000 U/ml; 10% FBS; 48 hours; mean±SE vs control
Experimental: as §1, §2, §3

NF-κB [4] = test: EMSA of constitutive nuclear NF-κB DNA binding, LNCaP; conditions: LNCaP prostate carcinoma; catalase 3,000 U/ml for 24 hours
Experimental: The effect of antioxidants on nuclear activation of NF-κB was studied by incubating near confluent (70%) cell cultures with antioxidant treatments for 1-48 hours. Nuclear protein was harvested, and EMSAs were performed using DNA consensus binding sequences, or nuclear translocation of the p65 component of NF-κB was studied by immunoperoxidase staining, as outlined below.
Electrophoretic Mobility Shift Assays (EMSAs). Nuclear protein was isolated and DNA binding reactions were performed as previously described in detail, Kennedy et al., Am. J. Respir. Cell Mol. Biol. 19:366-378 (1998). Monolayers were washed twice in cold DPBS and equilibrated 10 min on ice with 0.7 ml cold cytoplasmic extraction buffer, CEB (10 mM Tris, pH 7.9, 60 mM KCl, 1 mM EDTA, 1 mM DTT) with protease inhibitors, PI (1 mM Pefabloc, 50 μg/ml antipain, 1 μg/ml leupeptin, 1 μg/ml pepstatin, 40 μg/ml bestatin, 3 μg/ml E-64 and 100 μg/ml chymostatin). […] DNA-protein binding reactions were performed with 2 μg of nuclear protein (as determined by the Pierce method) and 30-80,000 cpm of ^32P-end-labelled double-stranded DNA probe in 10 mM Tris-HCl, pH 7.5, 50 mM NaCl, 0.5 mM EDTA, 0.5 mM DTT, 1 mM MgCl2, 50 μg/ml poly dI-dC, and 4% glycerol. […] Gels were dried and analyzed by autoradiography at −80° C. using an image intensifier screen. […]

NF-κB [5] = test: EMSA of constitutive nuclear NF-κB DNA binding, M1619; conditions: 24 hours, catalase 3,000 U/ml, NAC 20 mM, Ebselen 25 μM, dicumarol 250 μM
From the text: Electrophoretic Mobility Shift Assays (EMSAs). […] J. Respir.

Catalase
Percent Growth Inhibition [1]: 49 ± 2 | Percent Growth Inhibition [2]: 69 ± 4 | Induction of apoptosis (M1619 cells): did not induce apoptosis | Percent Growth Inhibition [3]: 43 ± 7 | constitutive nuclear DNA binding activity for NF-κB (NF-κB [4]): suppressed | constitutive NF-κB DNA binding activity in nuclear protein (NF-κB [5]): substantially reduced
